Laboratory results taken from paper PMC10895678 (Journal of Medicinal Chemistry, 2024).
Several values for one entry are separate records, joined by “and”; a condition that tells them apart may be missing. Equal entries are not always repeated. Where two headings read alike, the source gives them in different places.

Test: Mouse PK, combined (cassette) dosing of BGAz-001–005
Assay type: in vivo, KM mice
Parameters: AUMC(0-t) / VRT(0-t) / λz: unit not given here
Settings: for AUC(0-t): read-out: AUC(0-t); for MRT last: read-out: MRT(0-t); for MRT inf: read-out: MRT(0-∞); for Vd/F: read-out: Vz/F
Source text: Methods for combined single dosing (BGAz001–005) and dosing of single compounds multiple times (BGAz004 and BGAz005) are described in detail in the Supporting Information (PK Data).
Report on PK Results of Combined Dosing with BGAz-001–005
1 Materials and instrument combined dosing
An MS2 Turnover type oscillator was purchased from IKA Work’s Guangzhou (China), and a 5415R ChromatographicanalyseswereconductedusinganAgilent1290InfinityIIhighperformanceliquidchromatography andAgilentTechnologies6470TripleQuadLC/MS.Propranolol(≥90%inpurity,internalstandard,IS)waspurchased fromtheSigmaChemicalCo.(China).Formicacid(HPLCgrade)andmethanol(HPLCgrade)werepurchasedfrom DIKMACo.(China).Allchemicalsandsolventswereanalyticalgrade.WaterwaspurifiedusingaMillipore(AK,USA) laboratoryultra-purewatersystem(0.2μmfilter).
KMmice,weighing25–35g(BeijingVitalRiverLaboratoryAnimalTechnologyCo.,Ltd.,China)wereutilisedforthe studies.The protocols were approved by the Animal Care and Use Committee, GIBH. Animals were maintained on standard animal chow and waterad libitum, in a climate-controlled room (23±1 °C 30–70% relative humidity, a minimumof tenexchangesof roomairperhouranda12hlight/darkcycle)foroneweekpriortoexperiments.
3 Pharmacokinetic studies
Compounds BGAz-001 ，BGAz-002 ，BGAz-003 ，BGAz-004 and BGAz-005 were dissolved mixed in a solution containing DMSO (2%),ethanol (4%), Cremophor EL (4%) and ddH2O (90%); Pharmacokinetic propertiesof KM (male) were determined following IV, PO and IP administration. Animals were randomly distributed into three experimentalgroups(n=4).ThePOgroupwasgivenmixedsolutionwith5mg/kgbygastricgavage.TheIVgroup was dosed with mixed solution 1mg/kg byinjection into the tail vein. The IP group was dosed with mixed solution 1mg/kg by intraperitoneal injection. After single administration, whole blood samples (100 μL) were obtained from the orbital venousplexus atthe followingtime pointsafter dosing:5, 15,30 minand 1,3, 5,8, 24hour (PO and IP groups) and at the following time points after dosing 2, 10, 30min and 1, 3, 5, 8,24 hour (IV group). Wholeblood samples were collected in heparinised tubes. The plasma fraction was immediately separated by centrifugation. The micewerehumanelyeuthanasiabycarbondioxide24hoursafterexperimentwithoutpain.
4 Plasma sample and brain sample analysis
4.1 Standard curve sample preparation
ThecompoundsweredissolvedinDMSO(2mg/mL)anddilutedwithtoseriesconcentration(methanol:H 2O,1:1,10 μL) and blank plasma (50 μL) were added to 1.5 mL tubes and vortexed for 3 min, then acetonitrile-containing internalstandard(150μL)wasaddedandvortexedforafurther5min,andsubsequentlyspuninacentrifugeat13000 […]
4.2 Plasma and preparation
Plasmasampleswerepreparedusingaproteinprecipitationmethod.Solution(10μL,methanolH 2O,1:1)andplasma samples(50μL)wereaddedto1.5mLtubesandvortexfor3min,thenacetonitrile-containinginternalstandard(150 μL)wasaddedandvortexfor5min,andsubsequentlyspuninacentrifugeat13000× gfor40minat4°C.
Aftercentrifugation,supernatant(100μL)wastransferto96wellplatesandanalysedbyLC-MS/MSusinganAgilent 1290InfinityIIHPLCandanAgilentTechnologies6470TripleQuadLC/MS.

[1] = IP 1 mg/kg, cassette, mean of animals
[2] = IV 1 mg/kg, cassette, mean of animals
[3] = PO 5 mg/kg, cassette, mean of animals
[4] = male, KM, mouse, plasma, IP 1 mg/kg, cassette
[5] = male, KM, mouse, plasma, IP 1 mg/kg, cassette, mean of animals
[6] = male, KM, mouse, plasma, IV 1 mg/kg, cassette
[7] = male, KM, mouse, plasma, IV 1 mg/kg, cassette, mean of animals
[8] = male, KM, mouse, plasma, PO 5 mg/kg, cassette
[9] = male, KM, mouse, plasma, PO 5 mg/kg, cassette, mean of animals

Q: Which “AUMC(0-t)” value [1] does the source give for CNCC1CC(c2ccc(OC(F)(F)F)cc2)N1Cc1ccccc1OC(F)(F)F (stereo not drawn) [BGAz-005] here?
A: 2746.024 **μg

Q: And the “AUMC(0-∞)” value [1]?
A: 5711.413 **μg

Q: And the CLz/F [1]?
A: 2.157 L/kg

Q: And the C_last [1]?
A: 5.459 µg

Q: And the “R_AUC(t/∞)” value [1]?
A: 83.575%

Q: What about the “VRT(0-t)” value [1] of the same compound?
A: 43.817 ^2

Q: And the “VRT(0-∞)” value [1]?
A: 202.71 ^2

Q: And the λz [1]?
A: 0.079 1/

Q: What about the “AUC(0-∞)” value (IP 1 mg/kg, cassette, summary table) of the same compound?
A: 464.151 µg·h

Q: What about the “AUMC(0-t)” value [2] of the same compound?
A: 2221.012 **μg

Q: What about the “AUMC(0-∞)” value [2] of the same compound?
A: 3469.367 **μg

Q: And the CLz/F [2]?
A: 2.386 L/kg

Q: What about the C_last [2] of the same compound?
A: 2.531 µg

Q: What about the “R_AUC(t/∞)” value [2] of the same compound?
A: 91.7%

Q: And the “VRT(0-t)” value [2]?
A: 45.323 ^2

Q: And the “VRT(0-∞)” value [2]?
A: 139.16 ^2

Q: And the Vz/F [2]?
A: 28.599 L/kg

Q: And the λz [2]?
A: 0.098 1/

Q: And the “AUC(0-∞)” value (IV 1 mg/kg, cassette, summary table)?
A: 424.729 µg·h

Q: And the BA (PO 5 mg/kg vs IV 1 mg/kg, cassette)?
A: 72.63%

Q: What about the “AUMC(0-t)” value [3] of the same compound?
A: 6391.819 **μg

Q: And the “AUMC(0-∞)” value [3]?
A: 80528.925 **μg

Q: And the CLz/F [3]?
A: 14.928 L/kg

Q: What about the C_last [3] of the same compound?
A: 18.45 µg

Q: What about the “R_AUC(t/∞)” value [3] of the same compound?
A: 55.825%

Q: What about the “VRT(0-t)” value [3] of the same compound?
A: 47.178 ^2

Q: And the “VRT(0-∞)” value [3]?
A: 2247.307 ^2

Q: And the λz [3]?
A: 0.017 1/

Q: What about the “AUC(0-∞)” value (PO 5 mg/kg, cassette, summary table) of the same compound?
A: 1542.381 µg·h

Q: And the AUC(0-inf) (male, KM, mouse, plasma, ip, 1 mg/kg, IP 1 mg/kg, cassette, mean of animals, read-out: AUC(0-∞))?
A: 464 ng·h/mL

Q: What about the Cmax (male, KM, mouse, plasma, ip, 1 mg/kg, IP 1 mg/kg, cassette, mean of animals, read-out: Cmax) of the same compound?
A: 41.9 ng/mL

Q: And the Tmax (male, KM, mouse, plasma, ip, 1 mg/kg, IP 1 mg/kg, cassette, mean of animals, read-out: Tmax)?
A: 0.646 h

Q: What about the Cmax (male, KM, mouse, plasma, ip, 1 mg/kg, IP 1 mg/kg, cassette, summary table, read-out: Cmax) of the same compound?
A: 41.9 ng/mL

Q: And the half-life (male, KM, mouse, plasma, ip, 1 mg/kg, IP 1 mg/kg, cassette, summary table, read-out: T1/2 (converted))?
A: 9.34 h

Q: What about the Tmax (male, KM, mouse, plasma, ip, 1 mg/kg, IP 1 mg/kg, cassette, summary table, read-out: Tmax) of the same compound?
A: 0.646 h

Q: And the AUC(0-inf) (male, KM, mouse, plasma, iv, 1 mg/kg, IV 1 mg/kg, cassette, mean of animals, read-out: AUC(0-∞))?
A: 425 ng·h/mL

Q: What about the Cmax (male, KM, mouse, plasma, iv, 1 mg/kg, IV 1 mg/kg, cassette, mean of animals, read-out: Cmax) of the same compound?
A: 320 ng/mL

Q: What about the Tmax (male, KM, mouse, plasma, iv, 1 mg/kg, IV 1 mg/kg, cassette, mean of animals, read-out: Tmax) of the same compound?
A: 0.033 h

Q: And the Cmax (male, KM, mouse, plasma, iv, 1 mg/kg, IV 1 mg/kg, cassette, summary table, read-out: Cmax)?
A: 320 ng/mL

Q: And the half-life (male, KM, mouse, plasma, iv, 1 mg/kg, IV 1 mg/kg, cassette, summary table, read-out: T1/2 (converted))?
A: 8.05 h

Q: And the Tmax (male, KM, mouse, plasma, iv, 1 mg/kg, IV 1 mg/kg, cassette, summary table, read-out: Tmax)?
A: 0.033 h

Q: And the AUC(0-inf) (male, KM, mouse, plasma, po, 5 mg/kg, 5 mg/kg PO, cassette dosing, read-out: AUC0-inf)?
A: 1540 ng·h/mL

Q: What about the Cmax (male, KM, mouse, plasma, po, 5 mg/kg, 5 mg/kg PO, cassette dosing, read-out: Cmax (Mouse, P.O.)) of the same compound?
A: 43.1 ng/mL

Q: What about the half-life (male, KM, mouse, plasma, po, 5 mg/kg, 5 mg/kg PO, cassette dosing, read-out: T1/2 (Mouse, P.O.) (converted)) of the same compound?
A: 35.7 h

Q: And the Tmax (male, KM, mouse, plasma, po, 5 mg/kg, 5 mg/kg PO, cassette dosing, read-out: Tmax (Mouse, P.O.))?
A: 6 h

Q: What about the AUC(0-inf) (male, KM, mouse, plasma, po, 5 mg/kg, PO 5 mg/kg, cassette, mean of animals, read-out: AUC(0-∞)) of the same compound?
A: 1540 ng·h/mL

Q: What about the Cmax (male, KM, mouse, plasma, po, 5 mg/kg, PO 5 mg/kg, cassette, mean of animals, read-out: Cmax) of the same compound?
A: 43.1 ng/mL

Q: What about the Tmax (male, KM, mouse, plasma, po, 5 mg/kg, PO 5 mg/kg, cassette, mean of animals, read-out: Tmax) of the same compound?
A: 6 h

Q: What about the Cmax (male, KM, mouse, plasma, po, 5 mg/kg, PO 5 mg/kg, cassette, summary table, read-out: Cmax) of the same compound?
A: 43.1 ng/mL

Q: What about the half-life (male, KM, mouse, plasma, po, 5 mg/kg, PO 5 mg/kg, cassette, summary table, read-out: T1/2 (converted)) of the same compound?
A: 35.7 h

Q: And the Tmax (male, KM, mouse, plasma, po, 5 mg/kg, PO 5 mg/kg, cassette, summary table, read-out: Tmax)?
A: 6 h

Q: And the concentration at 0.083 h [4]?
A: 27 ng/mL and 60 nM

Q: And the concentration at 0.25 h [4]?
A: 70 nM and 29.8 ng/mL

Q: And the concentration at 0.5 h [4]?
A: 80 nM and 36.3 ng/mL

Q: What about the concentration at 1 h [4] of the same compound?
A: 90 nM and 39.8 ng/mL

Q: What about the concentration at 3 h [4] of the same compound?
A: 80 nM and 33.4 ng/mL

Q: What about the concentration at 5 h [4] of the same compound?
A: 50 nM and 21.3 ng/mL

Q: And the concentration at 8 h [4]?
A: 40 nM and 15.4 ng/mL

Q: And the concentration at 24 h [4]?
A: 10 nM and 5.44 ng/mL

Q: What about the AUC(0-t) [5] of the same compound?
A: 388 ng·h/mL

Q: And the MRT last [5]?
A: 7.13 h

Q: What about the MRT inf [5] of the same compound?
A: 12.3 h

Q: What about the Vd/F [5] of the same compound?
A: 28.9 L/kg

Q: What about the concentration at 0.033 h (male, KM, mouse, plasma, IV 1 mg/kg, cassette, 0.033 h) of the same compound?
A: 320 ng/mL and 740 nM

Q: And the concentration at 0.167 h (male, KM, mouse, plasma, IV 1 mg/kg, cassette, 0.167 h)?
A: 330 nM and 145 ng/mL

Q: And the concentration at 0.5 h [6]?
A: 170 nM and 75.2 ng/mL

Q: What about the concentration at 1 h [6] of the same compound?
A: 120 nM and 50.1 ng/mL

Q: And the concentration at 3 h [6]?
A: 60 nM and 25.4 ng/mL

Q: And the concentration at 5 h [6]?
A: 40 nM and 16.1 ng/mL

Q: What about the concentration at 8 h [6] of the same compound?
A: 20 nM and 10.3 ng/mL

Q: What about the concentration at 24 h [6] of the same compound?
A: 10 nM and 5.2 ng/mL

Q: What about the C0 [7] of the same compound?
A: 392 ng/mL

Q: And the AUC(0-t) [7]?
A: 392 ng·h/mL

Q: And the MRT last [7]?
A: 5.5 h

Q: And the MRT inf [7]?
A: 8.24 h

Q: What about the concentration at 0.083 h [8] of the same compound?
A: 7.08 ng/mL and 20 nM

Q: And the concentration at 0.25 h [8]?
A: 30 nM and 11.3 ng/mL

Q: And the concentration at 0.5 h [8]?
A: 50 nM and 20.4 ng/mL

Q: And the concentration at 1 h [8]?
A: 70 nM and 32.5 ng/mL

Q: What about the concentration at 3 h [8] of the same compound?
A: 90 nM and 39.1 ng/mL

Q: And the concentration at 5 h [8]?
A: 90 nM and 37.6 ng/mL

Q: What about the concentration at 8 h [8] of the same compound?
A: 90 nM and 40.2 ng/mL

Q: What about the concentration at 24 h [8] of the same compound?
A: 60 nM and 24.3 ng/mL

Q: What about the AUC(0-t) [9] of the same compound?
A: 621 ng·h/mL

Q: And the MRT last [9]?
A: 8.45 h

Q: And the MRT inf [9]?
A: 38.7 h

Q: And the Vd/F [9]?
A: 129 L/kg
